Measurements: patent publication US11098055B2, “Ester ACC inhibitors and uses thereof” (Gilead Apollo, LLC, priority 2015, dated 2021)
Converted amounts (≈) assume the structure as drawn.

Tests used:
fACC2 = fACC2 (UniProt Q00955); experiment: In vitro ACC2 inhibition assay (ADP-Glo), fungal ACC2; type: biochemical
Method in brief: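 ADP-Glo luminescent ADP detection with 5 nM ACC2, 20 μM ATP, 20 μM acetyl-CoA, 12 mM NaHCO3, 2 mM DTT, 5% DMSO; compound (30 μM-0.00051 μM, 11 points) preincubated 15 min, reaction 60 min at room temperature. Percent inhibition against DMSO and positive controls; IC50 by four-parameter nonlinear fit.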

C. albicans ATCC 90028 = experiment: Anti-Fungal (Candida) Activity Assay, broth microtiter MIC; type: cell-based; details: ATCC90028, 48 h, 3 replicates, MIC read at 48 h
Method in brief: (§1)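 Broth microdilution per CLSI M27-A3 in RPMI 1640 + MOPS, at a final inoculum of 2.5×10^3 CFU/mL. Compound DMSO stocks were diluted in water to a 128 μg/mL working solution. MIC was read visually against the growth control at 48 h.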

[1] = system: C. parapsilosis ATCC 22019; experiment: as above; type: cell-based; details: Lodderomyces parapsilosis, ATCC22019, 48 h, 3 replicates, MIC read at 48 h
Method in brief: as §1

C. krusei ATCC 6258 = experiment: as above; type: cell-based, Candida krusei; details: Pichia kudriavzevii, ATCC6258, 48 h, 3 replicates, MIC read at 48 h
Method in brief: as §1

Sequence of fACC2 (Q00955 whole entry): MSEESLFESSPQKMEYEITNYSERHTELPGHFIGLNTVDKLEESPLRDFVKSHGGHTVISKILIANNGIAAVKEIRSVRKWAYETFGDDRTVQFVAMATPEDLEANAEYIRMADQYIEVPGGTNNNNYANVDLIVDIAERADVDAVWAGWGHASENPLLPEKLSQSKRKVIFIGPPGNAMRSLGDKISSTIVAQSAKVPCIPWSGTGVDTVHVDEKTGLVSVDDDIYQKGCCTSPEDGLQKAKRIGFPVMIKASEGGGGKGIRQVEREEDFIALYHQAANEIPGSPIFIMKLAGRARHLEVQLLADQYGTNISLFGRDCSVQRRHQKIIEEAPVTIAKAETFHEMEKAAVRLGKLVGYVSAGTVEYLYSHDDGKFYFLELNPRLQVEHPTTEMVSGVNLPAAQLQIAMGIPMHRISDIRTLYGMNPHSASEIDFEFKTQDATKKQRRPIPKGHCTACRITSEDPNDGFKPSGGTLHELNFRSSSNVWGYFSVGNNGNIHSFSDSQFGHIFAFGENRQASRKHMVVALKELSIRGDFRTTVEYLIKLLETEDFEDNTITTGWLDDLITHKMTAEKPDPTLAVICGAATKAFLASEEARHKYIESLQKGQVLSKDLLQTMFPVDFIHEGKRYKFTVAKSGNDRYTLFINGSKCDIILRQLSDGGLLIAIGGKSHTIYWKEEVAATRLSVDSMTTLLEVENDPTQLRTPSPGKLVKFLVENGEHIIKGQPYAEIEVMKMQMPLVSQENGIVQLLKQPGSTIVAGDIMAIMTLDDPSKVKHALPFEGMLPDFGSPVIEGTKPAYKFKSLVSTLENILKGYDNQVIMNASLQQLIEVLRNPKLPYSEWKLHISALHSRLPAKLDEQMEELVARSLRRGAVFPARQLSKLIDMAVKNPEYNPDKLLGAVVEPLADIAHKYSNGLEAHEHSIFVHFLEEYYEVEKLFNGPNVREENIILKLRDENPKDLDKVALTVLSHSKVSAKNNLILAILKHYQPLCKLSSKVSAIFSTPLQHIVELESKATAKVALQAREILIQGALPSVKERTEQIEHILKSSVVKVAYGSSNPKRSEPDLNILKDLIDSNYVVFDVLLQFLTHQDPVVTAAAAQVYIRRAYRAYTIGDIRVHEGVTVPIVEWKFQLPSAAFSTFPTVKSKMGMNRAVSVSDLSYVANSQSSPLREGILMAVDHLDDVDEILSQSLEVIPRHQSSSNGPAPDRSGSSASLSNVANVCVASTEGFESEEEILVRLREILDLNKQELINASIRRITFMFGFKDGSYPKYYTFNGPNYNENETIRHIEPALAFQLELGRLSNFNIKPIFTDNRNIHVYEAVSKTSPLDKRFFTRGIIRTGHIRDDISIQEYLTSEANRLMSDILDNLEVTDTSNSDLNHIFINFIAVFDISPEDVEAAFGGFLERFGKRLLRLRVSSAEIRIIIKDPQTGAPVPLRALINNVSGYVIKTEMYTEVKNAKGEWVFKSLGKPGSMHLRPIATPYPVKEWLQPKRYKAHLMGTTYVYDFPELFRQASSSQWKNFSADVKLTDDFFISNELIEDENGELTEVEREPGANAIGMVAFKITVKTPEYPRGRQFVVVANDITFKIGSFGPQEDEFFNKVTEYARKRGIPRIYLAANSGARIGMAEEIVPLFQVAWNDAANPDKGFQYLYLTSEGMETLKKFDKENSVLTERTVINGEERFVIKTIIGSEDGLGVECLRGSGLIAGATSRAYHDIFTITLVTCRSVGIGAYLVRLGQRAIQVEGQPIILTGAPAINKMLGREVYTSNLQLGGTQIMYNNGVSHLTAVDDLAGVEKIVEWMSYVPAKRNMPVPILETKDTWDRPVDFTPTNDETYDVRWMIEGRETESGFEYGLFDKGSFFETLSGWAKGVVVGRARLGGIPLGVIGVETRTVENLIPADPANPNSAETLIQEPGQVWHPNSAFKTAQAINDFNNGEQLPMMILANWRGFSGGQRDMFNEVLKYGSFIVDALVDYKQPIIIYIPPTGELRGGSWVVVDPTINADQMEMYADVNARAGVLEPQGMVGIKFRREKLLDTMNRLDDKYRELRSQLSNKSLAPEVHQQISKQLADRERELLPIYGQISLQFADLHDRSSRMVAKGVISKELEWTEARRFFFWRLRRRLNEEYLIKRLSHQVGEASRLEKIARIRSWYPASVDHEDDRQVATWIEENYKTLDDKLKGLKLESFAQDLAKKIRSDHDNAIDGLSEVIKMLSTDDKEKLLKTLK

SMILES	IC50 (fACC2; Table 2b (additional results)) [nM]	MIC (C. albicans ATCC 90028; Table 3b (additional results)) [µg/mL]	MIC ([1]; Table 3b (additional results)) [µg/mL]	MIC (C. krusei ATCC 6258; Table 3b (additional results)) [µg/mL]	IC50 (fACC2; Table 2a) [nM]	MIC (C. albicans ATCC 90028; Table 3a) [µg/mL]	MIC ([1]; Table 3a) [µg/mL]	MIC (C. krusei ATCC 6258; Table 3a) [µg/mL]
CCOC(=O)c1sc2c(c1C)c(=O)n(C(C)(C)C(=O)N1CCCC1)c(=O)n2C[C@H](O)c1cc(F)ccc1OC [Compound I-22, (R)-ethyl 1-(2-(5-fluoro-2-methoxyphenyl)-2-hydroxyethyl)-5-methyl-3-(2-methyl-1-oxo-1-(pyrrolidin-1-yl)propan-2-yl)-2,4-dioxo-1,2,3,4-tetrahydrothieno[2,3-d]pyrimidine-6-carboxylate]	0.3 to 3	2.1 to 4 (≈ 3.74 to 7.12 µM)	0.25 to 1 (≈ 0.445 to 1.78 µM)	2.1 to 4 (≈ 3.74 to 7.12 µM)	–	–	–	–
CCOC(=O)c1sc2c(c1C)c(=O)n(C(C)(C)C(=O)NC(C)C)c(=O)n2CCc1cc(F)ccc1OC [Compound I-40, ethyl 1-(5-fluoro-2-methoxyphenethyl)-3-(1-(isopropylamino)-2-methyl-1-oxopropan-2-yl)-5-methyl-2,4-dioxo-1,2,3,4-tetrahydrothieno[2,3-d]pyrimidine-6-carboxylate]	3 to 10	2.1 to 4 (≈ 3.94 to 7.5 µM)	0.25 to 1 (≈ 0.468 to 1.87 µM)	2.1 to 4 (≈ 3.94 to 7.5 µM)	–	–	–	–
CCOC(=O)c1sc2c(c1C)c(=O)n(C(C)(C)C(=O)N1CCCCC1)c(=O)n2C[C@H](OC(C)C)c1ccccc1OC [Compound I-6, (R)-ethyl 1-(2-isopropoxy-2-(2-methoxyphenyl)ethyl)-5-methyl-3-(2-methyl-1-oxo-1-(piperidin-1-yl)propan-2-yl)-2,4-dioxo-1,2,3,4-tetrahydrothieno[2,3-d]pyrimidine-6-carboxylate]	0.3 to 3	2.1 to 4 (≈ 3.5 to 6.67 µM)	2.1 to 4 (≈ 3.5 to 6.67 µM)	2.1 to 4 (≈ 3.5 to 6.67 µM)	0.6 to 3	2.1 to 4 (≈ 3.5 to 6.67 µM)	> 4.1	2.1 to 4 (≈ 3.5 to 6.67 µM)
CCOC(=O)c1sc2c(c1C)c(=O)n(C(C)(C)C(=O)NC(C)C)c(=O)n2C[C@H](OC[C@@H](C)C#N)c1cc(F)ccc1OC [Compound I-35, ethyl 1-((R)-2-((S)-2-cyanopropoxy)-2-(5-fluoro-2-methoxyphenyl)ethyl)-3-(1-(isopropylamino)-2-methyl-1-oxopropan-2-yl)-5-methyl-2,4-dioxo-1,2,3,4-tetrahydrothieno[2,3-d]pyrimidine-6-carboxylate]	0.3 to 3	0.25 to 1 (≈ 0.405 to 1.62 µM)	0.25 to 1 (≈ 0.405 to 1.62 µM)	2.1 to 4 (≈ 3.41 to 6.49 µM)	–	–	–	–
CCNC(=O)C(C)(C)n1c(=O)c2c(C)c(C(=O)OCC)sc2n(C[C@H](OC(C)C)c2ccccc2OC)c1=O [Compound I-4, (R)-ethyl 3-(1-(ethylamino)-2-methyl-1-oxopropan-2-yl)-1-(2-isopropoxy-2-(2-methoxyphenyl)ethyl)-5-methyl-2,4-dioxo-1,2,3,4-tetrahydrothieno[2,3-d]pyrimidine-6-carboxylate]	3 to 10	2.1 to 4 (≈ 3.75 to 7.15 µM)	2.1 to 4 (≈ 3.75 to 7.15 µM)	2.1 to 4 (≈ 3.75 to 7.15 µM)	3 to 10	2.1 to 4 (≈ 3.75 to 7.15 µM)	> 4.1	2.1 to 4 (≈ 3.75 to 7.15 µM)
CCOC(=O)c1sc2c(c1C)c(=O)n([C@@H](C)C(=O)N1CCCC1)c(=O)n2C[C@H](OCCC#N)c1cc(F)ccc1OC [Compound I-23, ethyl 1-((R)-2-(2-cyanoethoxy)-2-(5-fluoro-2-methoxy-phenyl)ethyl)-5-methyl-2,4-dioxo-3-((S)-1-oxo-1-(pyrrolidin-1-yl)propan-2-yl)-1,2,3,4-tetrahydrothieno[2,3-d]pyrimidine-6-carboxylate]	3 to 10	2.1 to 4 (≈ 3.5 to 6.66 µM)	> 4.1	0.25 to 1 (≈ 0.416 to 1.66 µM)	–	–	–	–
CCOC(=O)c1sc2c(c1C)c(=O)n(C(C)(C)C(=O)NC(C)C)c(=O)n2C[C@H](OCC#N)c1cc(F)ccc1OC [Compound I-33, ethyl (R)-1-(2-(cyanomethoxy)-2-(5-fluoro-2-methoxy-phenyl)ethyl)-3-(1-(isopropylamino)-2-methyl-1-oxopropan-2-yl)-5-methyl-2,4-dioxo-1,2,3,4-tetrahydrothieno[2,3-d]pyrimidine-6-carboxylate]	0.3 to 3	0.25 to 1 (≈ 0.425 to 1.7 µM)	2.1 to 4 (≈ 3.57 to 6.8 µM)	2.1 to 4 (≈ 3.57 to 6.8 µM)	–	–	–	–
CCOC(=O)c1sc2c(c1C)c(=O)n(C(C)(C)C(=O)N1CCCC1)c(=O)n2C[C@H](OC1CCOCC1)c1ccccc1OC [Compound I-3, ethyl (R)-1-(2-(2-methoxyphenyl)-2-((tetrahydro-2H-pyran-4-yl)oxy)ethyl)-5-methyl-3-(2-methyl-1-oxo-1-(pyrrolidin-1-yl)propan-2-yl)-2,4-dioxo-1,2,3,4-tetrahydrothieno[2,3-d]pyrimidine-6-carboxylate]	0.3 to 3	0.25 to 1 (≈ 0.398 to 1.59 µM)	0.25 to 1 (≈ 0.398 to 1.59 µM)	2.1 to 4 (≈ 3.35 to 6.37 µM)	0.6 to 3	0.25 to 1 (≈ 0.398 to 1.59 µM)	0.25 to 1 (≈ 0.398 to 1.59 µM)	0.25 to 1 (≈ 0.398 to 1.59 µM)
CCOC(=O)c1sc2c(c1C)c(=O)n([C@@H](C)C(=O)N(C)C(C)C)c(=O)n2C[C@H](OCCC#N)c1cc(F)ccc1OC [Compound I-28, ethyl 1-((R)-2-(2-cyanoethoxy)-2-(5-fluoro-2-methoxy-phenyl)-ethyl)-3-((S)-1-(isopropyl(methyl)amino)-1-oxopropan-2-yl)-5-methyl-2,4-dioxo-1,2,3,4-tetrahydrothieno[2,3-d]pyrimidine-6-carboxylate]	0.3 to 3	2.1 to 4 (≈ 3.48 to 6.64 µM)	2.1 to 4 (≈ 3.48 to 6.64 µM)	0.25 to 1 (≈ 0.415 to 1.66 µM)	–	–	–	–
CCOC(=O)c1sc2c(c1C)c(=O)n([C@H](C)C(=O)N(C)C(C)C)c(=O)n2C[C@H](OCCC#N)c1cc(F)ccc1OC [Compound I-27, ethyl 1-((R)-2-(2-cyanoethoxy)-2-(5-fluoro-2-methoxy-phenyl)ethyl)-3-((R)-1-(isopropyl(methyl)amino)-1-oxopropan-2-yl)-5-methyl-2,4-dioxo-1,2,3,4-tetrahydrothieno[2,3-d]pyrimidine-6-carboxylate]	0.3 to 3	2.1 to 4 (≈ 3.48 to 6.64 µM)	2.1 to 4 (≈ 3.48 to 6.64 µM)	0.25 to 1 (≈ 0.415 to 1.66 µM)	–	–	–	–
CCOC(=O)c1sc2c(c1C)c(=O)n(C(C)(C)C(=O)NC(C)C)c(=O)n2C[C@H](OCCS(C)(=O)=O)c1cc(F)ccc1OC [Compound I-36, ethyl (R)-1-(2-(5-fluoro-2-methoxyphenyl)-2-(2-(methylsulfonyl)ethoxy)ethyl)-3-(1-(isopropylamino)-2-methyl-1-oxopropan-2-yl)-5-methyl-2,4-dioxo-1,2,3,4-tetrahydrothieno[2,3-d]pyrimidine-6-carboxylate]	0.3 to 3	0.25 to 1 (≈ 0.381 to 1.52 µM)	2.1 to 4 (≈ 3.2 to 6.1 µM)	2.1 to 4 (≈ 3.2 to 6.1 µM)	–	–	–	–
CCNC(=O)C(C)(C)n1c(=O)c2c(C)c(C(=O)OCC)sc2n(C[C@H](OCCC#N)c2cc(F)ccc2OC)c1=O [Compound I-29, (R)-ethyl 1-(2-(2-cyanoethoxy)-2-(5-fluoro-2-methoxy-phenyl)ethyl)-3-(1-(ethylamino)-2-methyl-1-oxopropan-2-yl)-5-methyl-2,4-dioxo-1,2,3,4-tetrahydrothieno[2,3-d]pyrimidine-6-carboxylate]	0.3 to 3	1.1 to 2 (≈ 1.87 to 3.4 µM)	2.1 to 4 (≈ 3.57 to 6.8 µM)	2.1 to 4 (≈ 3.57 to 6.8 µM)	–	–	–	–
CCOC(=O)c1sc2c(c1C)c(=O)n(C(C)(C)C(=O)NC(C)C)c(=O)n2C[C@H](OCCC#N)c1cc(F)ccc1OC [Compound I-15, (R)-ethyl 1-(2-(2-cyanoethoxy)-2-(5-fluoro-2-methoxy-phenyl)ethyl)-3-(1-(isopropylamino)-2-methyl-1-oxopropan-2-yl)-5-methyl-2,4-dioxo-1,2,3,4-tetrahydrothieno[2,3-d]pyrimidine-6-carboxylate]	0.3 to 3	0.25 to 1 (≈ 0.415 to 1.66 µM)	2.1 to 4 (≈ 3.48 to 6.64 µM)	0.25 to 1 (≈ 0.415 to 1.66 µM)	0.6 to 3	0.25 to 1 (≈ 0.415 to 1.66 µM)	0.25 to 1 (≈ 0.415 to 1.66 µM)	0.25 to 1 (≈ 0.415 to 1.66 µM)
CCOC(=O)c1sc2c(c1C)c(=O)n(C(C)(C)C(N)=O)c(=O)n2C[C@H](OCCOC)c1cc(F)ccc1OC [Compound I-10, (R)-ethyl 3-(1-amino-2-methyl-1-oxopropan-2-yl)-1-(2-(5-fluoro-2-methoxyphenyl)-2-(2-methoxyethoxy)ethyl)-5-methyl-2,4-dioxo-1,2,3,4-tetrahydrothieno[2,3-d]pyrimidine-6-carboxylate]	3 to 10	2.1 to 4 (≈ 3.71 to 7.07 µM)	2.1 to 4 (≈ 3.71 to 7.07 µM)	2.1 to 4 (≈ 3.71 to 7.07 µM)	3 to 10	> 4.1	> 4.1	> 4.1
CCNC(=O)[C@H](C)n1c(=O)c2c(C)c(C(=O)OCC)sc2n(C[C@H](OCCC#N)c2cc(F)ccc2OC)c1=O [Compound I-42, ethyl 1-((R)-2-(2-cyanoethoxy)-2-(5-fluoro-2-methoxyphenyl)ethyl)-3-((S)-1-(ethylamino)-1-oxopropan-2-yl)-5-methyl-2,4-dioxo-1,2,3,4-tetrahydrothieno[2,3-d]pyrimidine-6-carboxylate]	0.3 to 3	2.1 to 4 (≈ 3.65 to 6.96 µM)	2.1 to 4 (≈ 3.65 to 6.96 µM)	2.1 to 4 (≈ 3.65 to 6.96 µM)	–	–	–	–
CCOC(=O)c1sc2c(c1C)c(=O)n(C(C)(C)C(=O)N1CCCC1)c(=O)n2C[C@H](OCCO)c1cc(F)ccc1OC [Compound I-12, (R)-ethyl 1-(2-(5-fluoro-2-methoxyphenyl)-2-(2-hydroxy-ethoxy)ethyl)-5-methyl-3-(2-methyl-1-oxo-1-(pyrrolidin-1-yl)propan-2-yl)-2,4-dioxo-1,2,3,4-tetrahydrothieno[2,3-d]pyrimidine-6-carboxylate]	0.3 to 3	2.1 to 4 (≈ 3.47 to 6.6 µM)	0.25 to 1 (≈ 0.413 to 1.65 µM)	2.1 to 4 (≈ 3.47 to 6.6 µM)	0.6 to 3	> 4.1	> 4.1	2.1 to 4 (≈ 3.47 to 6.6 µM)
